Test results: patent publication US20250129069A1, “TRIAZOLO WRN INHIBITORS” (Nimbus Wadjet, Inc., priority 2023, published 2025)
Like-named read-outs stand apart in the source and are kept apart here.

Legend:
[1] = biological target: human Werner helicase (WRN, amino acids 517-1235 with L1074F point mutation) (Homo sapiens (Human), UniProt Q14191, L1074F); experiment: WRN (BV08) ADP-Glo assay; assay type: biochemical; conditions: human WRN (aa 517-1235, L1074F), read-out: ADP-Glo_hWRN_IC50
Summary of the method: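 Untagged WRN 517-1235 (L1074F), Sf9/baculovirus-expressed, 0.15 nM, preincubated 15 min with compound, then 5 μM ATP and 0.1 nM annealed DNA duplex added; 60 min at 25 °C in Bicine pH 7.5, 1 mM MgCl2, 1% DMSO. ADP-Glo luminescence; % inhibition vs DMSO and 20 μM NSC-617145 controls, four-parameter IC50 fit.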

[2] = test system: p21 induction in HCT 116 cells; experiment: p21 induction in cells (In-Cell Western, p21/GAPDH ratio); assay type: cell-based; conditions: 24 h compound incubation, read-out: p21_EC50
Summary of the method: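 HCT 116 cells treated 24 h at 37° C with 11-point, 2-fold dilutions typically from 10 μM, in duplicate. Fixed cells co-stained for p21 (800 nm) and GAPDH (700 nm) by In-Cell Western. p21/GAPDH ratio normalised between DMSO and reference WRN inhibitor controls, and EC50 obtained by nonlinear regression.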

Chain of human Werner helicase (WRN, amino acids 517-1235 with L1074F point mutation) (Q14191 other isoform, or with tags, fused parts or gaps L1074F (already in the parent)): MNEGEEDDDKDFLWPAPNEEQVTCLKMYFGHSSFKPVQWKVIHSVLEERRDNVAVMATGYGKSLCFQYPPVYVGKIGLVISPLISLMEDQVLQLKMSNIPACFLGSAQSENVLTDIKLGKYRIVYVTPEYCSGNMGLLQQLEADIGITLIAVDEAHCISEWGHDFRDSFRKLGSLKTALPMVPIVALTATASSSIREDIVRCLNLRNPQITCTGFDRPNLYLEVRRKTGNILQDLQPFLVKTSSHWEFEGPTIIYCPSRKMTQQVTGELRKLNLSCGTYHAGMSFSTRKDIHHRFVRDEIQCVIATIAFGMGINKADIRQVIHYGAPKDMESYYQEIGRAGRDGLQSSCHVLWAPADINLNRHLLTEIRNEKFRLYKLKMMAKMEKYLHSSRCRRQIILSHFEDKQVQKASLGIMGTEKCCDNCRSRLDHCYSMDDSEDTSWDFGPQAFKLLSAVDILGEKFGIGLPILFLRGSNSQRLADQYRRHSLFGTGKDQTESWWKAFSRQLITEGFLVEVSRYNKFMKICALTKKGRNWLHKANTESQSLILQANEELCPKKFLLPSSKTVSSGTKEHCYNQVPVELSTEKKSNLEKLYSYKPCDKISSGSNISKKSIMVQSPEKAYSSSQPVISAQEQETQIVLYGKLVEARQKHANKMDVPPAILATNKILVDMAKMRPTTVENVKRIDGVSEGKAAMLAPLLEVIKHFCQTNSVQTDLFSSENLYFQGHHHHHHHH

Structure (SMILES)	IC50 [1] [nM]	EC50 ([2]; Homo sapiens) [nM]	EC50 [2] [nM]
CCc1c(N2CCN(C(=O)c3ncnc(C)c3O)[C@H]3CC[C@@H]32)c(=O)c2nn(-c3ccnc(C)c3)nc2n1CC(=O)NC12CC(C3CC3)(C1)C2 [Compound I-19, N-(3-cyclopropylbicyclo[1.1.1]pentan-1-yl)-2-(5-ethyl-6-((1S,6S)-5-(5-hydroxy-6-methylpyrimidine-4-carbonyl)-2,5-diazabicyclo[4.2.0]octan-2-yl)-2-(2-methylpyridin-4-yl)-7-oxo-2,7-dihydro-4H-[1,2,3]triazolo[4,5-b]pyridin-4-yl)acetamide]	5 to 50	≤ 500	–
CCc1c(N2CCN(C(=O)c3cccc4ncoc34)[C@H]3CC[C@@H]32)c(=O)c2nn(C3=CCOCC3)nc2n1CC(=O)NC12CC(C(C)C)(C1)C2 [Compound I-52, 2-{6-[(1S,6S)-5-(1,3-benzoxazole-7-carbonyl)-2,5-diazabicyclo[4.2.0]octan-2-yl]-2-(3,6-dihydro-2H-pyran-4-yl)-5-ethyl-7-oxo-2H,4H,7H-[1,2,3]triazolo[4,5-b]pyridin-4-yl}-N-[3-(propan-2-yl)bicyclo[1.1.1]pentan-1-yl]acetamide]	5 to 50	500 to 2000	–
CCc1c(N2CCN(C(=O)c3ncnc(C)c3O)[C@H]3CC[C@@H]32)c(=O)c2nn(C3=CCO[C@H](C)C3)nc2n1CC(=O)NC12CC(C3CC3)(C1)C2 (single isomer, unassigned) [Compound I-180]	5 to 50	≤ 500	–
CCc1c(N2CCN(C(=O)c3c(OC)ncc(C(F)F)c3O)CC2)c(=O)c2nn(-c3ccnc(OC)c3)nc2n1CC(=O)NC12CC(C(C)C)(C1)C2 [Compound I-51, 2-(6-{4-[5-(difluoromethyl)-4-hydroxy-2-methoxypyridine-3-carbonyl]piperazin-1-yl}-5-ethyl-2-(2-methoxypyridin-4-yl)-7-oxo-2H,4H,7H-[1,2,3]triazolo[4,5-b]pyridin-4-yl)-N-[3-(propan-2-yl)bicyclo[1.1.1]pentan-1-yl]acetamide]	5 to 50	2000 to 5000	–
CCc1c(N2CCN(C(=O)c3cccc4oc(=O)[nH]c34)[C@H]3CC[C@@H]32)c(=O)c2nn(C3=CCOCC3)nc2n1CC(=O)NC12CC(C(C)C)(C1)C2 [Compound I-199, 2-[2-(3,6-dihydro-2H-pyran-4-yl)-5-ethyl-7-oxo-6-[(1S,6S)-5-(2-oxo-2,3-dihydro-1,3-benzoxazole-4-carbonyl)-2,5-diazabicyclo[4.2.0]octan-2-yl]-2H,4H,7H-[1,2,3]triazolo[4,5-b]pyridin-4-yl]-N-[3-(propan-2-yl)bicyclo[1.1.1]pentan-1-yl]acetamide]	5 to 50	≤ 500	–
CCc1c(N2CCN(C(=O)c3ncnc(C)c3O)[C@H]3CC[C@@H]32)c(=O)c2nn(-c3ccnc(OC)c3)nc2n1CC(=O)NC1CC2(CCCC2)C1 [Compound I-89, 2-{5-ethyl-6-[(1S,6S)-5-(5-hydroxy-6-methylpyrimidine-4-carbonyl)-2,5-diazabicyclo[4.2.0]octan-2-yl]-2-(2-methoxypyridin-4-yl)-7-oxo-2H,4H,7H-[1,2,3]triazolo[4,5-b]pyridin-4-yl}-N-{spiro[3.4]octan-2-yl}acetamide]	5 to 50	≤ 500	–
CCc1c(N2CCN(C(=O)c3ncnc(C)c3O)[C@H]3CC[C@@H]32)c(=O)c2nn(-c3ccnc(OC)c3)nc2n1CC(=O)NC12CC(C3CC3)(C1)C2 [Compound I-30, N-{3-cyclopropylbicyclo[1.1.1]pentan-1-yl}-2-{5-ethyl-6-[(1S,6S)-5-(5-hydroxy-6-methylpyrimidine-4-carbonyl)-2,5-diazabicyclo[4.2.0]octan-2-yl]-2-(2-methoxypyridin-4-yl)-7-oxo-2H,4H,7H-[1,2,3]triazolo[4,5-b]pyridin-4-yl}acetamide]	5 to 50	–	≤ 500
CCc1c(N2CCN(C(=O)c3ncnc(C)c3O)[C@H]3CC[C@@H]32)c(=O)c2nn(-c3ccnc(OC)c3)nc2n1CC(=O)NC1CC2(C1)CC(F)(F)C2 [Compound I-70, N-{6,6-difluorospiro[3.3]heptan-2-yl}-2-{5-ethyl-6-[(1S,6S)-5-(5-hydroxy-6-methylpyrimidine-4-carbonyl)-2,5-diazabicyclo[4.2.0]octan-2-yl]-2-(2-methoxypyridin-4-yl)-7-oxo-2H,4H,7H-[1,2,3]triazolo[4,5-b]pyridin-4-yl}acetamide]	5 to 50	500 to 2000	–

Continued, values first:

IC50 [1] [nM]	EC50 ([2]; Homo sapiens) [nM]	EC50 [2] [nM]	Structure (SMILES)
≤ 5	≤ 500	–	CCc1c(N2CCN(C(=O)c3ncnc(C)c3O)[C@H]3CC[C@@H]32)c(=O)c2nn(-c3ccnc(C)c3)nc2n1CC(=O)Nc1ccc(C(F)(F)F)cc1F [Compound I-59, 2-{5-ethyl-6-[(1S,6S)-5-(5-hydroxy-6-methylpyrimidine-4-carbonyl)-2,5-diazabicyclo[4.2.0]octan-2-yl]-2-(2-methylpyridin-4-yl)-7-oxo-2H,4H,7H-[1,2,3]triazolo[4,5-b]pyridin-4-yl}-N-[2-fluoro-4-(trifluoromethyl)phenyl]acetamide]
5 to 50	500 to 2000	–	CCc1c(N2CCN(C(=O)c3c(OC)ncc(C4CCOC4)c3O)CC2)c(=O)c2nn(-c3ccnc(OC)c3)nc2n1CC(=O)NC12CC(C(C)C)(C1)C2 (stereo not shown) [Compound I-75, 2-(5-ethyl-6-{4-[4-hydroxy-2-methoxy-5-(oxolan-3-yl)pyridine-3-carbonyl]piperazin-1-yl}-2-(2-methoxypyridin-4-yl)-7-oxo-2H,4H,7H-[1,2,3]triazolo[4,5-b]pyridin-4-yl)-N-[3-(propan-2-yl)bicyclo[1.1.1]pentan-1-yl]acetamide]
5 to 50	≤ 500	–	CCc1c(N2CCN(C(=O)c3c(OC)ncc(C)c3O)CC2)c(=O)c2nn(-c3ccnc(OC)c3)nc2n1CC(=O)NC12CC(C3CC3)(C1)C2 [Compound I-129, N-{3-cyclopropylbicyclo[1.1.1]pentan-1-yl}-2-{5-ethyl-6-[4-(4-hydroxy-2-methoxy-5-methylpyridine-3-carbonyl)piperazin-1-yl]-2-(2-methoxypyridin-4-yl)-7-oxo-2H,4H,7H-[1,2,3]triazolo[4,5-b]pyridin-4-yl}acetamide]
≤ 5	≤ 500	–	CCc1c(N2CCN(C(=O)c3ncnc(C)c3O)[C@H]3CC[C@@H]32)c(=O)c2nn(C3CC3(F)F)nc2n1CC(=O)Nc1ccc(C(F)(F)F)cc1Cl (stereo partly drawn) [Compound I-189, N-[2-chloro-4-(trifluoromethyl)phenyl]-2-[2-(2,2-difluorocyclopropyl)-5-ethyl-6-[(1S,6S)-5-(5-hydroxy-6-methylpyrimidine-4-carbonyl)-2,5-diazabicyclo[4.2.0]octan-2-yl]-7-oxo-2H,4H,7H-[1,2,3]triazolo[4,5-b]pyridin-4-yl]acetamide]
5 to 50	500 to 2000	–	CCc1c(N2CCN(C(=O)c3c(OC)ncc(C)c3O)CC2)c(=O)c2nn(-c3ccnc(OC)c3)nc2n1CC(=O)NC12CC(CC(F)F)(C1)C2 [Compound I-121, N-[3-(2,2-difluoroethyl)bicyclo[1.1.1]pentan-1-yl]-2-{5-ethyl-6-[4-(4-hydroxy-2-methoxy-5-methylpyridine-3-carbonyl)piperazin-1-yl]-2-(2-methoxypyridin-4-yl)-7-oxo-2H,4H,7H-[1,2,3]triazolo[4,5-b]pyridin-4-yl}acetamide]
5 to 50	500 to 2000	–	CCc1c(N2CCN(C(=O)c3ncnc(C)c3O)CC2)c(=O)c2nn(-c3ccnc(OC)c3)nc2n1CC(=O)NC1CC2(CCC2)C1 [Compound I-118, 2-{5-ethyl-6-[4-(5-hydroxy-6-methylpyrimidine-4-carbonyl)piperazin-1-yl]-2-(2-methoxypyridin-4-yl)-7-oxo-2H,4H,7H-[1,2,3]triazolo[4,5-b]pyridin-4-yl}-N-{spiro[3.3]heptan-2-yl}acetamide]
≤ 5	≤ 500	–	CCc1c(N2CCN(C(=O)c3c(O)ccc4ncoc34)[C@H]3CC[C@@H]32)c(=O)c2nn(-c3ccnc(OC)c3)nc2n1CC(=O)NC12CC(C(C)C)(C1)C2 [Compound I-137, 2-{5-ethyl-6-[(1S,6S)-5-(6-hydroxy-1,3-benzoxazole-7-carbonyl)-2,5-diazabicyclo[4.2.0]octan-2-yl]-2-(2-methoxypyridin-4-yl)-7-oxo-2H,4H,7H-[1,2,3]triazolo[4,5-b]pyridin-4-yl}-N-[3-(propan-2-yl)bicyclo[1.1.1]pentan-1-yl]acetamide]
5 to 50	> 5000	–	CCc1c(N2CCN(C(=O)c3ncnc(C)c3O)[C@H]3CC[C@@H]32)c(=O)c2nn(-c3ccnc(OC)c3)nc2n1CC(=O)NC1CCC2(CC1)CC2(F)F (stereo partly drawn) [Compound I-67, N-{1,1-difluorospiro[2.5]octan-6-yl}-2-{5-ethyl-6-[(1S,6S)-5-(5-hydroxy-6-methylpyrimidine-4-carbonyl)-2,5-diazabicyclo[4.2.0]octan-2-yl]-2-(2-methoxypyridin-4-yl)-7-oxo-2H,4H,7H-[1,2,3]triazolo[4,5-b]pyridin-4-yl}acetamide]
5 to 50	≤ 500	–	CCc1c(N2CCN(C(=O)c3ncnc(C)c3O)[C@H]3CC[C@@H]32)c(=O)c2nn(-c3ccc(OC)nc3)nc2n1CC(=O)NC12CC(C(C)C)(C1)C2 [Compound I-156, 2-{5-ethyl-6-[(1S,6S)-5-(5-hydroxy-6-methylpyrimidine-4-carbonyl)-2,5-diazabicyclo[4.2.0]octan-2-yl]-2-(6-methoxypyridin-3-yl)-7-oxo-2H,4H,7H-[1,2,3]triazolo[4,5-b]pyridin-4-yl}-N-[3-(propan-2-yl)bicyclo[1.1.1]pentan-1-yl]acetamide]
